Read-outs that look alike come from different tables or passages of the source.
Assays:
[1] = system: ExoU translocation from P. aeruginosa strain PAKΔSTYexoU into CHO cells; test: Inhibition of P. aeruginosa ExoU-dependent CHO cell killing (LDH release); conditions: ExoU-secreting P. aeruginosa, MOI 5
[2] = system: T3SS-mediated secretion of ExoS′-βLA fusion protein from P. aeruginosa strain MDM973; test: microbe, parasite or virus in culture; type: cell-based, Pseudomonas aeruginosa
in vitro = conditions: human
[3] = system: P. aeruginosa T3SS (exoT-luxCDABE reporter strain MDM852); type: cell-based, Pseudomonas aeruginosa; conditions: both at 50 μM compound; for Serum Effect: % inhibition of exoT-lux RLU in the absence of serum/% inhibition in the presence of 10% fetal calf serum; for RLU Selectivity / RLU-S (RLU Selectivity): % inhibition of exoT-lux RLU/% inhibition of lac-lux RLU; for RLU-S (RLU Selectivity): Table 5
HeLa cells = conditions: ratio of HeLa CC50 vs ExoS′-βLA IC50
[4] = system: T3SS-mediated secretion of YopE-βLA fusion protein from Y. pestis strain JG153/pMM85; test: microbe, parasite or virus in culture; type: cell-based; conditions: Yersinia pestis, read-out: yopE-βLA IC50
P. aeruginosa = test: Minimum inhibitory concentration (broth microdilution); conditions: Pseudomonas aeruginosa, read-out: MIC vs. P. aeruginosa
[5] = Pseudomonas aeruginosa, read-out: IC50 (μM) (ExoS′-βLA assay), Table 4
[6] = Pseudomonas aeruginosa, read-out: ExoS′-βLA IC50, Table 3, secretion from P. aeruginosa strain MDM973 reduced by 50%
[7] = CC50 (cytotoxicity, HeLa), absence of serum
[8] = Pseudomonas aeruginosa, read-out: IC50 in the ExoS′-βLA secretion assay
[9] = Pseudomonas aeruginosa, read-out: ExoS′-βLA IC50, Table 5, P. aeruginosa strain MDM973
[10] = Table 4, read-out: IC50 (μM) (ExoS′-βLA assay)

Compound	IC50 [2, 5]	CC50 (in vitro; HeLa CC50)	Serum Effect [3]	RLU Selectivity [3]	CC50/IC50 (HeLa cells)	IC50 [2, 6]	also measured
CC(Oc1ccc(Cl)cc1Cl)C(=O)NCc1ccco1 (racemic) [compound 5685325, 2-(2,4-dichlorophenoxy)-N-(2-furylmethyl)propanamide]	25 µM						rescue of CHO cells from ExoU cytotoxicity (in words) [1]: rescued CHO cells
Cc1ccc(CNC(=O)C(C)Oc2ccc(Cl)cc2Cl)cc1 (racemic) [compound 6109233, 2-(2,4-dichlorophenoxy)-N-(4-methylbenzyl)propanamide]	5 µM						
Cc1cc(Cl)ccc1OC(C)C(=O)NCc1ccc2c(c1)OCO2 (racemic) [compound 6116488, N-(1,3-benzodioxol-5-ylmethyl)-2-(4-chloro-2-methylphenoxy)propanamide]	98 µM						
CC(Oc1ccc(Cl)cc1Cl)C(=O)NCc1ccncc1 (racemic) [compound 6372013, 2-(2,4-dichlorophenoxy)-N-(4-pyridinylmethyl)propanamide]	59 µM						
COc1ccccc1CNC(=O)C(C)Oc1ccc(Cl)cc1Cl (racemic) [compound 6374948, 2-(2,4-dichlorophenoxy)-N-(2-methoxybenzyl)propanamide]	12 µM						
COc1ccc(CNC(=O)C(C)Oc2ccc(Cl)cc2Cl)cc1 (racemic) [compound 6375680, 2-(2,4-dichlorophenoxy)-N-(4-methoxybenzyl)propanamide]	10 µM						
CC(Oc1ccc(Cl)cc1Cl)C(=O)NCc1ccc(F)cc1 (racemic) [compound 6380194, 2-(2,4-dichlorophenoxy)-N-(4-fluorobenzyl)propanamide]	9 µM						rescue of CHO cells from ExoU cytotoxicity (in words) [1]: rescued CHO cells
CC(Oc1ccc(Cl)cc1Cl)C(=O)NCCC1=CCCCC1 (racemic) [compound 6467504, N-[2-(1-cyclohexen-1-yl)ethyl]-2-(2,4-dichlorophenoxy)propanamide]	> 100 µM						
CC(Oc1ccc(Cl)cc1Cl)C(=O)N(C)Cc1ccccc1 (racemic) [compound 6468028, N-benzyl-2-(2,4-dichlorophenoxy)-N-methylpropanamide]	21 µM						
CC(Oc1ccc(Cl)cc1Cl)C(=O)NCc1ccc(Cl)c(Cl)c1 (racemic) [compound 7271715, N-(3,4-dichlorobenzyl)-2-(2,4-dichlorophenoxy)propanamide]	> 100 µM						
Cc1nn(C)cc1CNC(=O)C(C)Oc1ccc(Cl)cc1Cl (racemic) [compound 8804126, 2-(2,4-dichlorophenoxy)-N-[(1,3-dimethyl-1H-pyrazol-4-yl)methyl]propanamide]	61 µM						
CC(Oc1ccccc1Cl)C(=O)NCc1ccc2c(c1)OCO2 (racemic) [compound 9153915, N-(1,3-benzodioxol-5-ylmethyl)-2-(2-chlorophenoxy)propanamide]	23 µM						
O=C(CC1Sc2ncnn2C1=O)Nc1ccccc1 (stereo not drawn) [Compound 2, 2-(6-oxo-5,6-dihydrothiazolo[3,2-b][1,2,4]triazol-5-yl)-N-phenylacetamide]		37 µM	2	2.6	3.1	12 µM	IC50 [4]: 6.1 µM
CCN1CCOC(CC(=O)Nc2ccc3c(c2)OCCO3)C1=O (stereo not drawn) [Compound 3, N-(2,3-dihydrobenzo[b][1,4]dioxin-6-yl)-2-(4-ethyl-3-oxomorpholin-2-yl)acetamide]		> 100 µM	4.8	4.1	>5.0	20 µM	CC50 (in vitro; [7]): ≥ 100 µM; MIC (P. aeruginosa): > 100 µM; rescue of CHO cells from ExoU cytotoxicity (in words) [1]: failed to inhibit T3SS-mediated translocation; IC50 [2, 8]: ≤ 25 µM; IC50 [4]: 16 µM
CCN1CCOC(CC(=O)Nc2ccc(F)cc2)C1=O (stereo not drawn) [Compound 4, 2-(4-ethyl-3-oxomorpholin-2-yl)-N-(4-fluorophenyl)acetamide]		100 µM	4.2	3.9	6.2	13 µM	CC50 (in vitro; [7]): ≥ 100 µM; MIC (P. aeruginosa): > 100 µM; rescue of CHO cells from ExoU cytotoxicity (in words) [1]: failed to inhibit T3SS-mediated translocation; IC50 [2, 8]: ≤ 25 µM; IC50 [4]: 6 µM
Cc1ccc(NC(=O)/C=C/C(=O)OCC(F)(F)C(F)F)cc1 [Compound 5, (E)-2,2,3,3-tetrafluoropropyl 4-oxo-4-(p-tolylamino)but-2-enoate]		28 µM	2.6	4.5	1.3	22 µM	
NC(=O)/C=C/C(=O)Nc1ccccc1 [Compound 6, N1-phenylfumaramide]		35 µM	1.5	3.6	1.8	19 µM	
NC(=O)/C=C/C(=O)Nc1ccccc1Cl [Compound 7, N1-(2-chlorophenyl)fumaramide]		40 µM	1.5	4.7	2.4	17 µM	
Cc1ccc(N2C(=O)C3C(C2=O)C2(C)C=CC3(C)O2)c(C)c1 (stereo not drawn) [Compound 8, 2-(2,4-dimethylphenyl)-4,7-dimethyl-3a,4,7,7a-tetrahydro-1H-4,7-epoxyisoindole-1,3(2H)-dione]		> 100 µM	3.1	9.2	>6.7	15 µM	CC50 (in vitro; [7]): ≥ 100 µM; MIC (P. aeruginosa): > 100 µM; rescue of CHO cells from ExoU cytotoxicity (in words) [1]: failed to inhibit T3SS-mediated translocation; IC50 [2, 8]: ≤ 25 µM; IC50 [4]: 103 µM
CCc1ccc2nc(N3C(=O)C(O)=C(C(=O)c4cccs4)C3c3ccc([N+](=O)[O-])cc3)sc2c1 (stereo not drawn) [Compound 10, 1-(6-ethylbenzo[d]thiazol-2-yl)-3-hydroxy-5-(4-nitrophenyl)-4-(thiophene-2-carbonyl)-1H-pyrrol-2(5H)-one]		16 µM	1.8	3.8	5.3	3 µM	IC50 [4]: 4.1 µM
CN1CCN(C(=S)c2ccc(N(C)C)cc2)CC1 [Compound 11, (4-(dimethylamino)phenyl)(4-methylpiperazin-1-yl)methanethione]		18 µM	1	22	0.9	19 µM	IC50 [4]: 19 µM
Cc1nnc(-c2ccc(OCC(=O)N3CCc4ccccc43)cc2)o1 [F5054-0019, 1-(indolin-1-yl)-2-(4-(5-methyl-1,3,4-oxadiazol-2-yl)phenoxy)ethanone]							RLU-S (RLU Selectivity) [3]: 10.8; IC50 [2, 9]: 22.3 µM
O=C(COc1ccc(Cl)cc1Cl)NCc1ccc2c(c1)OCO2 [MBX 1668, N-[3,4-(methylenedioxy)benzyl]-2-(2,4-dichlorophenoxy)acetamide]							IC50 [2, 10]: > 100 µM
C[C@@H](Oc1ccc(Cl)cc1Cl)C(=O)NCc1ccc2c(c1)OCO2 [MBX 1684, (R)-N-(benzo[d][1,3]dioxol-5-ylmethyl)-2-(2,4-dichlorophenoxy)propanamide]	6 µM						T3SS inhibitory activity (active/inactive) ([2]; ExoS′-βLA reporter assay): active; IC50 [2, 8]: ~6 µM
CC(C)(Oc1ccc(Cl)cc1Cl)C(=O)NCc1ccc2c(c1)OCO2 [MBX 1685, N-[3,4-(methylenedioxy)benzyl]-2-(2,4-dichlorophenoxy)-2-methylpropanamide]							IC50 [2, 10]: > 100 µM
C[C@H](Oc1ccc(Cl)cc1Cl)C(=O)NCc1ccc2c(c1)OCO2 [MBX 1686, N-[3,4-(methylenedioxy)benzyl]-(S)-2-(2,4-dichlorophenoxy)propanamide]							T3SS inhibitory activity (active/inactive) [2]: inactive; IC50 [2, 10]: > 100 µM; IC50 ([2]; read-out: IC50 in the ExoS′-βLA secretion assay): > 100 µM
Oc1ccc(O)c(Cc2nc3ccccc3[nH]2)c1 [compound 6430631, 2-((1H-benzo[d]imidazol-2-yl)methyl)benzene-1,4-diol]							RLU-S (RLU Selectivity) [3]: 4.2; IC50 [2, 9]: 22.3 µM
CC(Oc1ccc(Cl)cc1Cl)C(=O)NC(C)C1CC2CCC1C2 (stereo not drawn) [compound 7247834, N-(1-(bicyclo[2.2.1]heptan-2-yl)ethyl)-2-(2,4-dichlorophenoxy)propanamide]							RLU-S (RLU Selectivity) [3]: 5.6; IC50 [2, 9]: 16.7 µM
CC(Oc1ccccc1F)C(=O)NCc1ccc2c(c1)OCO2 (stereo not drawn) [compound 7339628]							IC50 [2, 10]: > 100 µM
pseudolipasin [reference compound]							rescue of CHO cells from ExoU cytotoxicity (in words) [1]: rescued CHO cells from ExoU toxicity with a similar potency

Reference: patent US8906945B2 (priority 2009, dated 2014)
